≈ marks a conversion by molar mass, not a printed value.
Experiments:
RAW264.7 [1] = assay: Anti-inflammatory activity in LPS induced mouse RAW264.7 cells assessed as inhibition of NO production; format: functional, cell-based
RAW264.7 [2] = assay: Anti-inflammatory activity in LPS induced mouse RAW264.7 cells assessed as inhibition of NO production by MTT method; format: functional, cell-based
HL-60 [3] = assay: Cytotoxicity against human HL-60 cells assessed as inhibition of cell growth; format: functional, cell-based
KB = assay: Cytotoxicity against human KB cells assessed as reduction in cell viability; format: functional, cell-based
L1210 = assay: Cytotoxicity against mouse L1210 cells assessed as reduction in cell viability; format: functional, cell-based
HepG2 = assay: Cytotoxicity against human HepG2 cells incubated for 48 hrs by MTT based colorimetry assay; format: functional, cell-based; conditions: HepG2, 48 h
CCRF S-180 = assay: Cytotoxicity against mouse CCRF S-180 cells incubated for 48 hrs by MTT based colorimetry assay; format: functional, cell-based; conditions: CCRF S-180, 48 h
MGC-803 = assay: Cytotoxicity against human MGC-803 cells incubated for 48 hrs by MTT based colorimetry assay; format: functional, cell-based; conditions: MGC-803, 48 h
[4] = Cytotoxicity against human 6T-CEM cells; format: functional, cell-based
RAW264.7 [5] = assay: Anti-inflammatory activity in LPS induced mouse RAW264.7 cells assessed as inhibition of NO production pretreated for 1 hr followed by LPS stimulation and measured after 18 hrs by MTT assay; format: functional; conditions: time 19 hrs, read-out: ED50 (the source's name)
B16-F10 = assay: Cytotoxicity against mouse B16-F10 cells incubated for 48 hrs by WST-8 assay; format: functional, cell-based; conditions: B16-F10, 48 h
HeLa = assay: Cytotoxicity against human HeLa cells incubated for 48 hrs by WST-8 assay; format: functional, cell-based
HL-60 [6] = assay: Cytotoxicity against human HL-60 cells incubated for 48 hrs by WST-8 assay; format: functional, cell-based; conditions: HL-60, 48 h
HL-60 [7] = assay: Cytotoxicity against human HL-60 cells; format: functional, cell-based
U2OS = assay: Synergistic cytotoxicity in human U2OS cells assessed as combination index in presence of doxorubicin; format: functional
CCRF-CEM = assay: Cytotoxicity against human CCRF-CEM cells; format: functional, cell-based

## C=C1C(=O)O[C@@H]2[C@@H]3[C@@H](C[C@@]4(O)[C@]3(O)CC[C@]43C(=O)C[C@H]4C(=C)CC[C@H]5C(=C)C(=O)O[C@@H]5[C@H]43)C(=C)CC[C@@H]12
RAW264.7 [1]
  IC50: 2.41 µg/mL (≈ 4.76 µM)

## C=C1CC[C@H]2C(=C)CC[C@@H]3[C@H](OC(=O)[C@]3(CC(C)O)C[C@@H]3C(=O)O[C@H]4[C@H]3CCC(=C)[C@@H]3CCC(=C)[C@@]34C)[C@@H]12 (some centres undefined)
RAW264.7 [2]
  IC50: 2.46 µM

## C[C@H](O)CC[C@H]1[C@@H]2C[C@H]3[C@@H](C[C@]12C)OC(=O)C31CC2(CO1)C(=O)O[C@@H]1C[C@]3(C)[C@@H](CC[C@@H](C)O)[C@@H]3C[C@@H]12 (some centres undefined)
HL-60 [3]
  IC50: 8.7 µM

## C=C1CCC[C@]2(C)CC[C@@H](C(C)C)[C@H](NC(=O)N(CC(=O)O)[C@@H]3[C@H]4C(=C)CCC[C@]4(C)CC[C@H]3C(C)C)[C@@H]12
KB
  IC50: 2.6 µg/mL (≈ 4.94 µM)
L1210
  IC50: 2.6 µg/mL (≈ 4.94 µM)

## CC(=O)C1=C(Oc2oc3cc4c(c(C)c3c2C)[C@@H](C)CCC4)C[C@H]2CCC[C@H](C)[C@@]2(C)C1
HepG2
  IC50: 11.9 µM
CCRF S-180
  IC50: 11.9 µM
MGC-803
  IC50: 11.9 µM

## C=C1C(=O)O[C@H]2C[C@H](C)C3=C(C[C@H]12)[C@@]1(C)OC(=O)[C@@H](c2ccc(C)c([C@H](C)CCCOC(C)=O)c2)C[C@H]1[C@H]3OC(C)=O
[4]
  IC50: 4.4 µM

## C=C(C)[C@@H]1c2oc3c(c2C(=O)C2=CCC[C@@H](C)[C@@]21C)C(=O)C[C@]1(C)C3=CCC[C@H]1C
RAW264.7 [5]
  EC50: 23.6 µM

## C=C1CCC[C@]2(C)CC[C@@H](C(C)C)[C@H](NC(=O)NC(C)(C)[C@@H]3C=C4[C@@H](C)CCC[C@]4(C)CC3)[C@@H]12
KB
  IC50: 2.6 µg/mL (≈ 5.55 µM)
L1210
  IC50: 2.6 µg/mL (≈ 5.55 µM)

## C=C1C(=O)O[C@@H]2/C=C(\C)CC/C=C(/C(=O)OC)[C@H](OCC)[C@@H](OC(=O)[C@](C)(O)[C@H](C)OC(=O)/C3=C/CC/C(C)=C/[C@H]4OC(=O)C(=C)[C@@H]4[C@H](OC(=O)/C(C)=C\C)C3)[C@@H]12
B16-F10
  IC50: 0.2 µM
HeLa
  IC50: 0.2 µM
HL-60 [6]
  IC50: 0.2 µM

## C=C1C(=O)O[C@H]2C[C@H](C)C3=C(C[C@H]12)[C@]1(C)C[C@H]3C[C@@]12C(=O)O[C@@H]1C[C@H](C)C(CC[C@H](C)O)=CC[C@@H]12
HL-60 [7]
  IC50: 4.9 µM

## C=C1C(=O)O[C@H]2[C@H]1[C@H](OC(=O)[C@](C)(O)[C@H](C)OC(=O)/C1=C/CC/C(C)=C/[C@H]3OC(=O)C(=C)[C@@H]3[C@H](OC(=O)/C(C)=C\C)C1)[C@@H](OCC)/C(C(=O)OC)=C\CC[C@]1(C)O[C@@H]21
B16-F10
  IC50: 0.2 µM
HeLa
  IC50: 0.2 µM
HL-60 [6]
  IC50: 0.2 µM

## COC(=O)/C(C)=C1\C(=O)[C@H](O)[C@@]2(C)[C@@H]3C[C@@H]3[C@@]34CCC5=C6C3=C(C(=O)[C@H](O)[C@@]6(C)[C@@H]3C[C@H]53)[C@](C)(C(C)=O)[C@@H]1[C@@]24O
U2OS
  CI: 1.12

## C=C1C(=O)O[C@H]2C[C@H](C)C3=C(C[C@H]12)[C@@]1(C)C[C@@H]3C[C@@]12C(=O)O[C@@H]1C[C@@]3(C)[C@@H](O)C[C@@H](O)C(=C)[C@@H]3C[C@@H]12
CCRF-CEM
  IC50: 0.14 µM

## C=C1C(=O)O[C@H]2C[C@H](C)[C@@]34C[C@@H](C[C@@]35C(=O)O[C@@H]3C[C@@]6(C)[C@@H](O)C[C@@H](O)C(=C)[C@@H]6C[C@@H]35)C(C)=C4C[C@H]12
CCRF-CEM
  IC50: 0.14 µM

## C=C1C(=O)O[C@H]2C[C@H](C)[C@@]34C[C@@H](C[C@@]35C(=O)O[C@H]3CC(=C)[C@H]6CC[C@@](C)(O)[C@@H]6C[C@@H]35)C(C)=C4C[C@H]12
CCRF-CEM
  IC50: 2.03 µM

## C=C1CC[C@H]2C(=C)CC[C@@H]3[C@H](OC(=O)[C@]3(CC(C)=O)C[C@@H]3C(=O)O[C@@H]4/C=C(/C)CC/C=C(/C)CC[C@@H]34)[C@@H]12
RAW264.7 [2]
  IC50: 1.88 µM

Reference: ChEMBL document CHEMBL5244250, “Natural sesquiterpenoid oligomers: A chemical perspective” (Eur J Med Chem, 2020)
